{"source": "patent US20120004180A1", "about": "“METHOD OF PRODUCING A NOVEL OPIOID PEPTIDE” (priority 2008, published 2012)", "key": {"[1]": {"tested_on": "physical dependence", "settings": "compared with morphine; cited from earlier work"}, "[2]": {"tested_on": "pain", "settings": "experiments on animals; intrathecal application in rats; cited from earlier work"}, "[3]": {"tested_on": "thermal pain", "experiment": "Thermal pain sensitivity after subarachnoid administration via cannula", "type": "in vivo", "settings": "rats, dose of 5 mg", "source_text": "Two days prior to the experiments, rats were implanted with cannulae into the subarachnoid cavity. During the experiment, the analgesic activity was examined by administering the peptide analogue (N′-Tyrosyl-D-alanyl-glycyl-phenylalanyl, N″-alpha-methyl-4-(2-methylpropyl) benzenoacetyl-D-tryptophanyl)-hydrazide."}, "[4]": {"tested_on": "acute pain in mice with inflammation", "experiment": "Tail immersion in water heated to 55° C. in murine melanoma metastasis model with inflammation", "type": "in vivo", "settings": "two weeks after murine melanoma cells into the hind limb, intraperitoneal injection 30 mg/kg", "description": "In an animal metastasis model, inflammation was induced by administering around a million cells of murine melanoma into the hind limb. After two days, a progressing inflammation was observed, elicited by tumour take. After two weeks of tumour development, the analgesic activity of (N′-Tyrosyl-D-alanyl-glycyl-phenylalanyl, N″-salicyl-glycyl-D-tryptophanyl)-hydrazide was examined against acute pain caused by tail immersion in water heated to 55° C."}, "[5]": {"tested_on": "acute pain in mice with inflammation", "experiment": "Tail immersion in water at 55° C. in mice with Freund's adjuvant-induced inflammation", "type": "in vivo", "settings": "one week after Freund's adjuvant into the limb, intravenous injection 20 mg/kg", "description": "Inflammation was induced in mice through application of Freund's adjuvant into the limb. A progressing inflammation was observed after two days. After a week, the analgesic effects on acute pain of the peptide analogue HCl.Tyr-D-Ala-Gly-Phe-NHNH-(CBz-D-Trp-) were examined via the immersion of the tail in water at 55° C."}}, "data": [{"compound": "C[C@@H](NC(=O)[C@@H](N)Cc1ccc(O)cc1)C(=O)NCC(=O)N[C@@H](Cc1ccccc1)C(=O)NNC(=O)[C@H](Cc1ccccc1)NC(=O)CNC(=O)[C@@H](C)NC(=O)[C@@H](N)Cc1ccc(O)cc1", "note": "[biphalin]", "values": [{"measurement": "habit-forming activity (physical dependence)", "setting": "[1]", "result": "much lesser habit-forming activity"}, {"measurement": "analgesic activity", "setting": "[2]", "result": "significant analgesic activity"}]}, {"compound": "(N′-Tyrosyl-D-alanyl-glycyl-phenylalanyl, N″-alpha-methyl-4-(2-methylpropyl) benzenoacetyl-D-tryptophanyl)-hydrazide [Example III]", "values": [{"measurement": "duration of elimination of sensitivity to thermal pain", "setting": "[3]", "result": 1, "unit": "h"}, {"measurement": "sensitivity to thermal pain", "setting": "[3]", "result": "complete elimination"}]}, {"compound": "(N′-Tyrosyl-D-alanyl-glycyl-phenylalanyl, N″-salicyl-glycyl-D-tryptophanyl)-hydrazide [Example II]", "values": [{"measurement": "pain reaction (analgesic activity against acute pain, tail immersion)", "setting": "[4]", "result": "completely mitigated"}]}, {"compound": "(N′-tyrosyl-D-alanyl-glycyl-phenylalanyl, N″-benzoxycarbonyl-D-tryptophanyl) hydrazide [Example I]", "values": [{"measurement": "pain reaction (analgesic effect on acute pain, tail immersion)", "setting": "[5]", "result": "completely mitigated"}]}]}
